From patent publication US20020032183A1, “Use of (di-substituted-phenyl)-pyrimidinyl-imidazole derivatives as JNK-inhibitors” (priority 2000, published 2002)
Where a name gives a salt, the structure may show the parent alone.

How the values were obtained:
JNK3α1 = molecular target: T1, JNK3α1 (Homo sapiens, UniProt P53779); assay: Biochemical determination of inhibition of JNK3α1; settings: truncated JNK3α1, 1 μM ATP, 0.5 μM GST-ATF2, 30° C., 30 min
T1 construct: Truncated JNK3α1 (amino acids 39-422) was expressed in E. coli; made in house; host or cells: E. coli
T1 sequence (P53779 39-422 isoform P53779-2): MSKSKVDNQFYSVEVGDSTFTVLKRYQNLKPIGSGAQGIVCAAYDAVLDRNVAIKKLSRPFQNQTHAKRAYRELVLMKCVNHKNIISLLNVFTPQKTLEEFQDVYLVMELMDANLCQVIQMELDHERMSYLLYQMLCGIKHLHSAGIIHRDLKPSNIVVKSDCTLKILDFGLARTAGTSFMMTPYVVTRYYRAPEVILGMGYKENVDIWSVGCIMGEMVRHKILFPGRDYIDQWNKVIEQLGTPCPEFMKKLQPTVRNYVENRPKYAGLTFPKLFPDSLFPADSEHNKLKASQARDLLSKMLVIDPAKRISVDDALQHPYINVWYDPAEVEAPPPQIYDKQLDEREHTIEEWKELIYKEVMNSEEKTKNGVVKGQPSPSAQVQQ
Description: Activation reactions were incubated at 30° C. for 2 h.
Enzyme inhibition studies were performed at 30° C. for 30 min with 0.5 μM GST-ATF2, 1 μM ATP, 1 nM activated JNK3α1 and compound ranging from 30 pM to 100 μM. Reactions were carried out in 100 μL volumes containing the final concentrations of the following: 25 mM HEPES (Sigma) pH 7.4; 10 mM MgCl2 (Sigma); 2 mM DTT (Sigma); 20 mM β-glycerophosphate (Sigma); 0.1 mM Na3VO4 (Sigma); 2 μCi [γ-^33P]ATP (2000 Ci/mmol; 1 Ci=37 GBq) (Amersham Pharmacia Biotech, Piscataway, N.J.). Reactions were stopped with 100 μL 100 mM EDTA/15 mM sodium pyrophosphate. Immobilon™-P 96-well plates (Millipore MAIPNOB™ 10, available from the Millipore Corp., Bedford, Mass.) were pretreated with 100 μL methanol, followed by 100 μL 15 mM sodium pyrophosphate. Fifty μL of the stopped reaction was spotted in triplicate on the Immobilon™-P 96-well plate. The samples were vacuum-filtered and washed three times each with 100 μL 75 mM H3PO4 to remove unincorporated [γ-^33P]ATP. After the third H3PO4 wash and a final filtration step to remove H3PO4, 50 μL of Microscint™-20 (Packard BioScience Ltd., Pangbourne, Berkshire, U.K.) was added to each well and samples were analyzed on a Packard Topcount™ liquid scintillation counter. IC50 values were determined by fitting the data to the equation for a four parameter logistic.

[1] = test system: Rat superior cervical ganglion neurons; assay: Sympathetic neuronal survival assay (no NGF exposure; GAP-43 ELISA and cell counts); format: cell-based; settings: NGF 1 ng/ml
Description: Activation of c-jun-N-terminal kinase (JNK) has been implicated in apoptosis in sympathetic neurons. An inhibitor of JNK, Example 2, was tested for neuroprotective effects in two models of sympathetic neuronal cell death.
In the first model, ganglia were dissociated and plated directly into culture plates in the presence of compound for 48 hours, then fixed and survival assayed using an ELISA for GAP-43. This model will hereafter be referred to as the ‘survival assay’.
Ganglia were enzymatically dissociated using 0.25% trypsin for 45 minutes. The trypsin was then inhibited using Dulbecco's MEM (DMEM) supplemented with 10% fetal bovine serum, and the cells mechanically triturated using a pipette tip to form a single cell suspension. Neurons in the suspension were counted using a haemocytometer, and plated at a density of 3000-5000 neurons per well in poly-D-lysine and laminin coated 96 well tissue culture clusters in DMEM supplemented with B27 serum substitute. Cultures were then incubated at 37° C./5% CO2. One hour following plating, cultures were either treated with NGF 25 ng/ml or with L-790,984 at a range of concentrations for the NGF deprivation and survival assays respectively.
Cultures for the NGF deprivation assay were returned to the incubator for 4 days. Following this, the medium was aspirated, plates washed once with DMEM/B27, and the cultures treated with Example 2 at concentrations ranging from 1 nM to 10 μM, together with an anti-NGF blocking antibody at 250 ng/ml. Cultures were then returned to the incubator for a further 72 hours prior to fixation and survival quantification. Cultures treated with Example 2 immediately for the survival assay were returned to the incubator for 48 hours; cultures were then fixed and survival quantified using the GAP-43 ELISA.
Cultures were fixed by the addition of an equal volume 4% paraformaldehyde to each well for 10 minutes; this was then aspirated, and replaced by a further volume of 4% paraformaldehyde for a further 20 minutes at room temperature. Plates were then washed three times with PBS/0.3% TX100, and non-specific binding sites blocked by the addition of 5% normal horse serum (NHS) in PBS/0.3% TX100. Plates were incubated at room temperature for one hour, then the blocking serum was aspirated without washing and replaced with primary antibody. The primary antibody used was a mouse monoclonal antibody raised against Growth Associated Protein 43 (Sigma), prepared at a dilution of 1:500 in PBS/0.3% TX100/5% NHS. Primary antibody was added to all sample wells, with four control wells returned to blocking serum to act as minus primary control. Plates were then refrigerated overnight at 4° C. The next day, plates were washed three times with PBS/0.3 TX100 and secondary antibody added. The secondary antibody used was peroxidase conjugated sheep anti-mouse IgG, and was added at a dilution of 1:1000 in PBS/0.3% TX100/5% NHS. Plates were incubated for 1 hour at room temperature, then washed three times with PBS/0.3% TX100, and K-Blue insoluble peroxidase substrate added for 30 minutes at room temperature. The optical density of the plates was then read at 650 nm, and the survival of neurons calculated and expressed as percentage of the control response.
Cell counts were performed on one sample plate for each model of sympathetic neuronal cell death, by the addition of a tertiary antibody to the plate, followed by avidin-biotin complex and an insoluble peroxidase substrate. Following quantification of optical density, plates were washed three times in PBS/0.3% TX100, and non-specific sites blocked using PBS/0.3% TX100/5% normal rabbit serum (“NRS”). Plates were incubated for one hour at room temperature, then the blocking serum was aspirated and replaced with biotinylated rabbit anti-sheep IgG at a dilution of 1:500 in PBS/0.3% TX10O/5% NRS. […]

| Molecule | IC50 (JNK3α1) [nM] | Survival, ELISA Data Mean ([1]; GAP-43 ELISA) | Survival, Cell Counts Mean ([1]; immunostained neurons per well) |
| --- | --- | --- | --- |
| CCCn1c(C2CCNCC2)nc(-c2ccc(Cl)c(Cl)c2)c1-c1ccnc(NC2CC2)n1 [Example 1, Cyclopropyl-{4-[5-(3,4-dichlorophenyl)-2-piperidin-4-yl-3-propyl-3H-imidazol-4-yl]-pyrimidin-2-yl}amine] | 8 |  |  |
| Clc1ccc(-c2nc(C3CCNCC3)n(CC3CC3)c2-c2ccnc(NC3CC3)n2)cc1Cl [Example 7, Cyclopropyl-{4-[3-cyclopropylmethyl-5-(3,4-dichlorophenyl)-2-piperidin-4-yl-3H-imidazol-4-yl]-pyrimidin-2-yl}amine bis trifluoroacetic acid salt] | 4 |  |  |
| NGF: NGF at 1 ng/ml, comparison group in the sympathetic neuronal survival assay; these neurons are NGF dependent (protein, UniProt P01139 122-241, looked up) Beta-nerve growth factor: SSTHPVFHMGEFSVCDSVSVWVGDKTTATDIKGKEVTVLAEVNINNSVFRQYFFETKCRASNPVESGCRGIDSKHWNSYCTTTHTFVKALTTDEKQAAWRFIRIDTACVCVLSRKATRRG |  | 618.55 | 587.00 |
